“Also recorded” adds a separate entry of the source.
Key:
[1] = GlutaDON study: side effects (nausea and vomiting); format: in vivo, human; settings: DON up to 185 mg/m^2 in combination with PEG-PGA 120 IU/m^2 twice a week
Experimental: In a phase I/IIa clinical study (GlutaDON®), altogether 58 patients with advanced carcinomas were treated with the combination of the two active ingredients described herein. The patients received PEG-PGA in a dosage of 120 IU/m^2 twice a week by the intravenous route, the infusion lasting 15 minutes. The administration of PEG-PGA was followed after 2-4 hours by the intravenous application of DON in a concentration of 5-185 mg/m^2. The duration of the infusion was again 15 minutes.

advanced carcinomas = assay: Phase I/IIa clinical study (GlutaDON): stabilization/progression by RECIST criteria; format: in vivo, human; settings: for Progression (share of patients) / Stabilization (share of patients): Total
Experimental: In a phase I/IIa clinical study (GlutaDON®), altogether 58 patients with advanced carcinomas were treated with the combination of the two active ingredients described herein. The patients received PEG-PGA in a dosage of 120 IU/m^2 twice a week by the intravenous route, the infusion lasting 15 minutes. The administration of PEG-PGA was followed after 2-4 hours by the intravenous application of DON in a concentration of 5-185 mg/m^2. The duration of the infusion was again 15 minutes. […] According to the internationally accepted RECIST criteria, the term “stabilization” means that the increase in the measurable tumor diameters was less than 20% six weeks or more after the screening, i.e. after the staging of the tumor before the first treatment. According to the internationally accepted RECIST criteria, the term “progression” means that a growth of more than 20%, or a subjective progression, or new lesions were observed within six weeks.

[2] = dosages of up to 600 mg/m^2 twice a week; cited from earlier work
[3] = Colon, high DON dosage 105-185 mg/m^2, with PEG-PGA 120 IU/m^2
[4] = Colon, low DON dosage 5-80 mg/m^2, with PEG-PGA 120 IU/m^2
[5] = Kidney, high DON dosage 105-185 mg/m^2 i.v., after PEG-PGA 120 IU/m^2 twice a week
[6] = Kidney, low DON dosage 5-80 mg/m^2 i.v., after PEG-PGA 120 IU/m^2 twice a week
[7] = Other indications, high DON dosage 105-185 mg/m^2, with PEG-PGA 120 IU/m^2
[8] = Other indications, low DON dosage 5-80 mg/m^2, with PEG-PGA 120 IU/m^2
[9] = Ovary, high DON dosage 105-185 mg/m^2, with PEG-PGA 120 IU/m^2
[10] = Ovary, low DON dosage 5-80 mg/m^2, with PEG-PGA 120 IU/m^2
[11] = Prostate, high DON dosage 105-185 mg/m^2, with PEG-PGA 120 IU/m^2
[12] = Prostate, low DON dosage 5-80 mg/m^2, with PEG-PGA 120 IU/m^2
[13] = Total (10 patients), high DON dosage 105-185 mg/m^2, with PEG-PGA 120 IU/m^2
[14] = Total (36 patients), low DON dosage 5-80 mg/m^2, with PEG-PGA 120 IU/m^2
[15] = high DON dosage 105-185 mg/m^2, with PEG-PGA 120 IU/m^2
[16] = low DON dosage 5-80 mg/m^2, with PEG-PGA 120 IU/m^2

For `[N-]=[N+]=CC(=O)CC[C@H](N)C(=O)O` [DON, 6-diazo-5-oxo-L-norleucine], the “Nausea and vomiting as dose-limiting side effects” value [1] was “without nausea and vomiting being found to be dosage-limiting side effects; also recorded: not dose-limiting”, the “Progression (number of patients)” value (advanced carcinomas; [3]) was 1 patients and the “Stabilization (number of patients)” value (advanced carcinomas; [3]) was 0 patients. For the same compound, the “Progression (number of patients)” value (advanced carcinomas; [4]) was 4 patients, the “Stabilization (number of patients)” value (advanced carcinomas; [4]) was 2 patients and the “Progression (number of patients)” value (advanced carcinomas; [5]) was 0 patients. For the same compound, the “Stabilization (number of patients)” value (advanced carcinomas; [5]) was 4 patients, the “Progression (number of patients)” value (advanced carcinomas; [6]) was 4 patients and the “Stabilization (number of patients)” value (advanced carcinomas; [6]) was 5 patients. For the same compound, the “Progression (number of patients)” value (advanced carcinomas; [7]) was 1 patients, the “Stabilization (number of patients)” value (advanced carcinomas; [7]) was 0 patients and the “Progression (number of patients)” value (advanced carcinomas; [8]) was 10 patients. The “Stabilization (number of patients)” value (advanced carcinomas; [8]) was 4 patients, the “Progression (number of patients)” value (advanced carcinomas; [9]) was 0 patients and the “Stabilization (number of patients)” value (advanced carcinomas; [9]) was 1 patients. The “Progression (number of patients)” value (advanced carcinomas; [10]) was 4 patients, the “Stabilization (number of patients)” value (advanced carcinomas; [10]) was 1 patients and the “Progression (number of patients)” value (advanced carcinomas; [11]) was 1 patients. For the same compound, the “Stabilization (number of patients)” value (advanced carcinomas; [11]) was 2 patients, the “Progression (number of patients)” value (advanced carcinomas; [12]) was 1 patients and the “Stabilization (number of patients)” value (advanced carcinomas; [12]) was 1 patients. The “Progression (number of patients)” value (advanced carcinomas; [13]) was 3 patients, the “Stabilization (number of patients)” value (advanced carcinomas; [13]) was 7 patients and the “Progression (number of patients)” value (advanced carcinomas; [14]) was 23 patients. The “Stabilization (number of patients)” value (advanced carcinomas; [14]) was 13 patients, the “Progression (share of patients)” value (advanced carcinomas; [15]) was 30% and the “Stabilization (share of patients)” value (advanced carcinomas; [15]) was 70%. The “Progression (share of patients)” value (advanced carcinomas; [16]) was 64%, the “Stabilization (share of patients)” value (advanced carcinomas; [16]) was 36% and the “Action of DON used by itself” value [2] was “very modest action”. The “Nausea and vomiting with DON used by itself” value [2] was “dosage-limiting side effects”.

Source: US8465736B2, “Glutadon” (priority 2006, dated 2013)
